Drawing on patent US20160257697A1, “THIOPHENE-SUBSTITUTED TETRACYCLIC COMPOUNDS AND METHODS OFUSE THEREOF FOR THE TREATMENT OF VIRAL DISEASES” (priority 2013, published 2016), this text covers IC50 for 18 compounds.

Common to all, as to assay: microbe, parasite or virus in culture
Holding throughout (assay type): cell-based, Hepatitis C virus (HCV)

The subject of one experiment is HCV replicon 2B. The note with it: Replicon Assay A. The method, boiled down: (§1)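 Read-out is replicon RNA per cell by real-time RT-PCR, normalised to cyclophilin mRNA amplified in the same well. Cells were exposed to compound for 3 days at 2000 cells/well in medium with 5% fetal bovine serum and 0.5% DMSO.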
For orientation: A replicon is a self-replicating genome or part of one, used to study replication in cells.

In a further experiment the test system is HCV replicon 1A. The following applies: replicon 1A, Replicon Assay A. The method in brief: as §1
A further experiment deals with HCV replicon 1AY93H. The following applies: Replicon Assay A. The method in brief: as §1
Setting [1] is: read-out: 1A Y93H IC50, replicon 1AY93H.
Where [2] appears, read: Hepatitis C virus, read-out: 2B IC50 (nM), replicon 2B.
Where [3] appears, read: Hepatitis C virus, read-out: 1A Y93H IC50 (nM), replicon 1AY93H.

Each structure is given as a SMILES string. Read-outs that look alike come from different tables or passages of the source.

What is called IC50 is the point on the concentration scale where inhibition reaches its midpoint. Take `CCc1ccc(C2Oc3cc(-c4cnc([C@@H]5CCCN5C(=O)C(NC(=O)OC)C5C[C@@H](C)O[C@@H](C)C5)[nH]4)cc(F)c3-c3cc4cc(-c5cnc([C@@H]6CCCN6C(=O)C(NC(=O)OC)C6C[C@@H](C)O[C@@H](C)C6)[nH]5)ccc4n32)s1` (single isomer, unassigned) [Compound 299]: the IC50 came to 0.14 nM with HCV replicon 2B (read-out: 2B IC50, replicon 2B); 0.0017 nM with HCV replicon 1A (Hepatitis C virus); 0.27 nM with HCV replicon 1AY93H (setting [1]).

On to `COC(=O)N[C@H](C(=O)N1CCC[C@H]1c1ncc(-c2cc(F)c3c(c2)OC(c2ccsc2)n2c-3cc3cc(-c4cnc([C@@H]5CCCN5C(=O)[C@@H](NC(=O)OC)C(C)C)[nH]4)ccc32)[nH]1)C(C)C` (single isomer, unassigned) [Compound 318], for which the IC50 was determined as 6.87 nM with HCV replicon 2B (read-out: 2B IC50, replicon 2B); 0.0019 nM with HCV replicon 1A; 5.9 nM in the experiment on HCV replicon 1AY93H (setting [1]).

In the case of `COC(=O)N[C@H](C(=O)N1CCC[C@H]1c1ncc(-c2cc(F)c3c(c2)OC(c2cc(C)sc2C)n2c-3cc3cc(-c4cnc([C@@H]5CCCN5C(=O)[C@@H](NC(=O)OC)C(C)C)[nH]4)ccc32)[nH]1)C(C)C` (single isomer, unassigned) [Compound 319], the IC50 came to 8.06 nM in the experiment on HCV replicon 2B (setting [2]), 0.001 nM in the experiment with HCV replicon 1A (Hepatitis C virus) and 9.38 nM in the experiment on HCV replicon 1AY93H (setting [3]).

For the compound `COC(=O)N[C@H](C(=O)N1CCC[C@H]1c1ncc(-c2cc(F)c3c(c2)OC(c2cc(C)sc2C)n2c-3cc3cc(-c4cnc([C@@H]5CCCN5C(=O)[C@@H](NC(=O)OC)C(C)C)[nH]4)ccc32)[nH]1)C(C)C` (single isomer, unassigned) [Compound 320], the IC50 amounted to 5.1 nM with HCV replicon 2B (read-out: 2B IC50, replicon 2B); 0.0011 nM in the experiment with HCV replicon 1A; 5.5 nM in the experiment with HCV replicon 1AY93H (setting [1]).

Turning to `COC(=O)N[C@H](C(=O)N1CCC[C@H]1c1ncc(-c2cc(F)c3c(c2)OC(c2csc4ccccc24)n2c-3cc3cc(-c4cnc([C@@H]5CCCN5C(=O)[C@@H](NC(=O)OC)C(C)C)[nH]4)ccc32)[nH]1)C(C)C` (single isomer, unassigned) [Compound 323], the concentration for half-maximal inhibition (IC50) in the experiment with HCV replicon 2B (setting [2]) was determined as 15.8 nM; in the experiment with HCV replicon 1A (Hepatitis C virus) it was 0.0021 nM; with HCV replicon 1AY93H (setting [3]), 2.51 nM.

As to `COC(=O)N[C@H](C(=O)N1CCC[C@H]1c1ncc(-c2cc(F)c3c(c2)OC(c2csc4ccccc24)n2c-3cc3cc(-c4cnc([C@@H]5CCCN5C(=O)[C@@H](NC(=O)OC)C(C)C)[nH]4)ccc32)[nH]1)C(C)C` (single isomer, unassigned) [Compound 324], the IC50 in the experiment with HCV replicon 2B (read-out: 2B IC50, replicon 2B) was found to be 7.99 nM; with HCV replicon 1A it was 0.0014 nM; with HCV replicon 1AY93H (setting [1]), 4.89 nM.

With `COC(=O)N[C@H](C(=O)N1CCC[C@H]1c1ncc(-c2cc(F)c3c(c2)OC(c2sc(C4CC4)cc2C)n2c-3cc3cc(-c4cnc([C@@H]5CCCN5C(=O)[C@@H](NC(=O)OC)C(C)C)[nH]4)ccc32)[nH]1)C(C)C` (single isomer, unassigned) [Compound 328], the IC50 in the experiment on HCV replicon 2B (read-out: 2B IC50, replicon 2B) came to 1.73 nM; in the experiment with HCV replicon 1A (Hepatitis C virus), 0.001 nM; in the experiment with HCV replicon 1AY93H (setting [1]), 2.8 nM.

As for `COC(=O)N[C@H](C(=O)N1CCC[C@H]1c1ncc(-c2cc(F)c3c(c2)OC(c2sc(C4CC4)cc2C)n2c-3cc3cc(-c4cnc([C@@H]5CCCN5C(=O)[C@@H](NC(=O)OC)C(C)C)[nH]4)ccc32)[nH]1)C(C)C` (single isomer, unassigned) [Compound 329], the IC50 in the experiment with HCV replicon 2B (read-out: 2B IC50, replicon 2B) was 0.605 nM; in the experiment with HCV replicon 1A, 0.0012 nM; in the experiment with HCV replicon 1AY93H (setting [1]) it was 0.937 nM.

As to `COC(=O)N[C@H](C(=O)N1CCC[C@H]1c1ncc(-c2cc(F)c3c(c2)OC(c2ccc(C(C)CF)s2)n2c-3cc3cc(-c4cnc([C@@H]5CCCN5C(=O)[C@@H](NC(=O)OC)C(C)C)[nH]4)ccc32)[nH]1)C(C)C` (single isomer, unassigned) [Compound 332], the IC50 was found to be 1.39 nM in the experiment with HCV replicon 2B (read-out: 2B IC50, replicon 2B); 0.0011 nM with HCV replicon 1A (Hepatitis C virus); 0.765 nM in the experiment on HCV replicon 1AY93H (setting [3]).

On to `COC(=O)N[C@H](C(=O)N1CCC[C@H]1c1ncc(-c2ccc3c(c2)OC(c2ccc(C4CC4)s2)n2c-3cc3cc(-c4cnc([C@@H]5CCCN5C(=O)[C@@H](NC(=O)OC)C5CCOCC5)[nH]4)ccc32)[nH]1)C(C)C` (single isomer, unassigned) [Compound 334], for which the IC50 in the experiment with HCV replicon 2B (read-out: 2B IC50, replicon 2B) was determined as 0.0768 nM; with HCV replicon 1A (Hepatitis C virus), 0.0024 nM; in the experiment with HCV replicon 1AY93H (setting [1]), 0.159 nM.

Turning to `COC(=O)NC(C(=O)N1CCC[C@H]1c1ncc(-c2ccc3c(c2)cc2n3C(c3ccc(C4CC4)s3)Oc3cc(-c4cnc([C@@H]5CCCN5C(=O)[C@@H](NC(=O)OC)C(C)C)[nH]4)cc(F)c3-2)[nH]1)C1C2COCC21` (single isomer, unassigned) [Compound 338], the IC50 in the experiment with HCV replicon 2B (read-out: 2B IC50, replicon 2B) was found to be 1.52 nM; with HCV replicon 1A (Hepatitis C virus) it was 0.0024 nM; in the experiment on HCV replicon 1AY93H (setting [1]), 0.357 nM.

Take `COC(=O)N[C@H](C(=O)N1CCC[C@H]1c1ncc(-c2cc(F)c3c(c2)OC(c2ccc(C(C)C)s2)n2c-3cc3cc(-c4cnc([C@@H]5CCCN5C(=O)[C@@H](NC(=O)OC)C5CCOCC5)[nH]4)ccc32)[nH]1)C(C)C` (single isomer, unassigned) [Compound 344]: the IC50 in the experiment on HCV replicon 2B (read-out: 2B IC50, replicon 2B) was 0.242 nM; in the experiment on HCV replicon 1A (Hepatitis C virus) it was 0.0015 nM; in the experiment with HCV replicon 1AY93H (setting [1]) it was 0.128 nM.

In the case of `COC(=O)NC(C(=O)N1CCC[C@H]1c1ncc(-c2ccc3c(c2)cc2n3C(c3ccc(F)s3)Oc3cc(-c4cnc([C@@H]5CCCN5C(=O)[C@@H](NC(=O)OC)C(C)C)[nH]4)cc(F)c3-2)[nH]1)C1C[C@@H](C)O[C@@H](C)C1` (single isomer, unassigned) [Compound 349], the IC50 in the experiment on HCV replicon 2B (read-out: 2B IC50, replicon 2B) was 0.39 nM; with HCV replicon 1A it was 0.0014 nM; in the experiment with HCV replicon 1AY93H (setting [1]), 0.266 nM.

For the compound `COC(=O)NC(C(=O)N1CCC[C@H]1c1ncc(-c2ccc3c(c2)cc2n3C(c3ccc(C4CC4)s3)Oc3cc(-c4cnc([C@@H]5CCCN5C(=O)[C@@H](NC(=O)OC)C(C)C)[nH]4)cc(F)c3-2)[nH]1)C1CCO[C@@H](C)C1` (single isomer, unassigned) [Compound 354], the IC50 in the experiment with HCV replicon 2B (read-out: 2B IC50, replicon 2B) was found to be 0.602 nM; with HCV replicon 1A (Hepatitis C virus) it was 0.002 nM; in the experiment on HCV replicon 1AY93H (setting [1]), 0.38 nM.

Turning to `COC(=O)NC(C(=O)N1CCC[C@H]1c1ncc(-c2ccc3c(c2)cc2n3C(c3ccc(C4CC4)s3)Oc3cc(-c4cnc([C@@H]5CCCN5C(=O)[C@@H](NC(=O)OC)C(C)C)[nH]4)cc(F)c3-2)[nH]1)C1CCO[C@@H](C)C1` (single isomer, unassigned) [Compound 355], the IC50 with HCV replicon 2B (read-out: 2B IC50, replicon 2B) was determined as 2.8 nM; with HCV replicon 1A it was 0.0019 nM; with HCV replicon 1AY93H (setting [1]), 1.75 nM.

For `CCc1ccc(C2Oc3cc(-c4cnc(C5CCCN5C(=O)C(NC(=O)OC)C5C[C@@H](C)O[C@@H](C)C5)[nH]4)ccc3-c3cc4c(F)c(-c5cnc([C@@H]6CCCN6C(=O)[C@@H](NC(=O)OC)C(C)C)[nH]5)ccc4n32)s1` (single isomer, unassigned) [Compound 358], the IC50 is 2.49 nM with HCV replicon 2B (read-out: 2B IC50, replicon 2B); 0.0047 nM in the experiment on HCV replicon 1A (Hepatitis C virus); 2.62 nM in the experiment with HCV replicon 1AY93H (setting [1]).

For `CCc1ccc(C2Oc3cc(-c4c[nH]c([C@@H]5CCCN5C(=O)[C@@H](NC(=O)OC)C(C)C)n4)ccc3-c3cc4c(F)c(-c5c[nH]c([C@@H]6CCCN6C(=O)C(NC(=O)OC)C6C[C@@H](C)O[C@@H](C)C6)n5)ccc4n32)s1` (single isomer, unassigned) [Compound 360], the IC50 was found to be 2.52 nM in the experiment with HCV replicon 2B (read-out: 2B IC50, replicon 2B); 0.0025 nM with HCV replicon 1A (Hepatitis C virus); 3.56 nM with HCV replicon 1AY93H (setting [1]).

In the case of `COC(=O)NC(C(=O)N1CCC[C@H]1c1ncc(-c2ccc3c(c2)cc2n3C(c3ccc(C(C)C)s3)Oc3cc(-c4cnc([C@@H]5CCCN5C(=O)[C@@H](NC(=O)OC)C(C)C)[nH]4)cc(C)c3-2)[nH]1)C1C[C@@H](C)O[C@@H](C)C1` (single isomer, unassigned) [Compound 365], the IC50 was 0.154 nM in the experiment with HCV replicon 2B (read-out: 2B IC50, replicon 2B); 0.0027 nM in the experiment on HCV replicon 1A (Hepatitis C virus); 0.38 nM with HCV replicon 1AY93H (setting [1]).
